Results as given in ChEMBL document CHEMBL1145134, “Inclusion complexation and solubilization of paclitaxel by bridged bis(beta-cyclodextrin)s containing a tetraethylenepentaamino spacer” (2003).

System: K562
Experiment: Antiproliferative activity of the paclitaxel-TPCD complex was tested against K562 erythroleukemia after 72 hr at a concentration of 1E-6 mg/mL using MTT cytotoxicity assay
Type: functional, Homo sapiens

`CC(=O)O[C@H]1C(=O)[C@@]2(C)[C@H]([C@H](OC(=O)c3ccccc3)[C@]3(O)C[C@H](OC(=O)[C@H](O)[C@@H](NC(=O)c4ccccc4)c4ccccc4)C(C)=C1C3(C)C)[C@]1(OC(C)=O)CO[C@@H]1C[C@@H]2O` [PACLITAXEL] was tested, and the Activity was 57.7%.
